The values below come from patent US8828942B2, “Means for treating synucleinopathies” (Affiris AG, priority 2009, dated 2014).

Entries after “also recorded” stand apart in the source; their conditions may differ.

Test [1] can be described thus: In vivo testing of mimotopes: serum titer against injected peptide (ELISA). The note with it: mice, 30 μg peptide coupled to KLH, alum, s.c.; titer by ELISA as OD halfmax. The method, then:
(§1) Inhibiting as well as non-inhibiting peptides were coupled to KLH and injected into mice (wildtype C57/B16 or BalbC mice; subcutaneous injection into the flank) together with an appropriate adjuvant (aluminium hydroxide). Animals were vaccinated 3 times in biweekly intervals and sera were taken biweekly as well. Titers to injected peptides as well as to an irrelevant peptide were determined with every serum. Titers against the recombinant human alpha-synuclein protein and recombinant human beta-synuclein were determined starting with Serum 2 respectively. In general sera were analysed by reaction against peptides coupled to Bovine Serum Albumin (BSA) and recombinant full length proteins which were immobilised on ELISA plates. Titers were determined using anti mouse IgG specific antibodies. For examples of immunogenicity against injected peptide and alpha-synuclein see Table 5 and Table 6.
(§2) Female C57/B16 mice or BalbC, 5-6 mice per group, were subcutaneously immunized with 30 μg peptide coupled to KLH. Control groups were injected with PBS or the original epitope. As adjuvant alum was used. The peptides administered were all able to bind to monoclonal antibodies specifically binding aa100-109 of human alpha-synuclein although some of the peptides did inhibit the binding of the original epitope to its parental antibody in vitro only weakly (in an in vitro inhibition assay). The in vitro ELISA assay to determine the antibody titer was performed with sera of single mice (see Tab. 5) after each vaccination in a two week interval. The wells of the ELISA plate were coated with mimotope-BSA conjugates. The positive control was performed by reaction of the parental antibody with the respective mimotope-BSA conjugate. The detection was performed with anti-mouse IgG. Additionally, recombinant proteins were immobilised on ELISA plates and sera reacted accordingly. For all mimotopes tested in C57/B16 mice or BalbC, antibodies reacting to the individual injected peptide could be detected after repeated vaccination. Although not all mice induced higher titer against alpha-synuclein (see tab. 5 for examples).
In general terms: An ELISA detects its analyte on a solid surface through an enzyme-linked reagent.

The test system of test [2] is recombinant human alpha-synuclein protein. The experiment in a line: In vivo testing of mimotopes: serum titer against alpha-synuclein (ELISA). The note with it: mice immunized with peptide-KLH, alum, OD halfmax. Here is the method:
as §1, §2

Test [3] deals with monoclonal antibody 12-9-9. The experiment in a line: In vitro binding assay (ELISA) with monoclonal antibody 12-9-9. Details: species or system mouse; key to Binding: 0: no binding to 12-9-9 detectable in ELISA; 1: weak binding: binding of mimotope weaker compared to the minimal original sequence p5436; 2: strong binding: binding of mimotope similar to the minimal original sequence p5436. The settings on record: for Binding: binding capacity to 12-9-9 in ELISA, peptide-BSA coated (1 μM), compared with p5436; for detection/binding by monoclonal antibody 12-9-9 in ELISA: result in words. The text has this:
A monoclonal antibody derived from the fusion “AFFiRiS 6”: Balb/c mice (Charles River) were immunized with original alpha-synuclein epitope LGKNEEGAPQ-C (SEQ ID NO:3) coupled to BTG (bovine thyroglobuline) and CFA (complete Freund's adjuvant; first injection) as well as IFA (incomplete Freund's adjuvant; 3 booster injections) as adjuvant. LGKNEEGAPQ-peptide-specific (SEQ ID NO: 203) antibody-producing hybridomas are detected by ELISA (LGKNEEGAPQC-peptide-coated (SEQ ID NO: 3)ELISA plates). Human alpha-synuclein (recombinant protein, p4446) is used as positive control peptide: hybridomas recognizing the recombinant protein immobilized on ELISA plates are included because they are binding both peptide and full length alpha-synuclein specifically. […] The Hybridoma clone (12-9-9; IgG1, kappa) was analysed for specific detection of the natural human alpha-synuclein epitope LGKNEEGAPQ. (SEQ ID NO: 203). 12-9-9 recognizes the injected epitope as well as full length alpha-synuclein protein (recombinant protein; obtained from rPeptide, Bogart, Ga., USA) in ELISA (see FIG. 2). […] Thus the minimal required epitope for binding has been defined as KNEEGAP (SEQ ID NO: 139).
Peptides derived from Phage Display as well as N-terminally truncated variants thereof were coupled to BSA and bound to ELISA plates (1 μM) and subsequently incubated with the monoclonal antibody that was used for the screening procedure to analyse binding capacity of identified peptides (see FIG. 4).

For test [4], the system named is monoclonal antibody 12-9-9. The experiment in a line: In vitro inhibition assay (ELISA). Also on record: key: 0: no competition of 12-9-9 detectable in ELISA; 1: weak competition: competition of mimotope weaker compared to the minimal original sequence p5436; 2: strong competition: competition of mimotope similar to the minimal original sequence p5436. The note with it: competition capacity in ELISA, peptide 400 μg/ml to 3 μg/ml, plates coated with p5436 and p4446. In kind it is binding, mouse. The method, then:
Different amounts of peptides (concentrations ranging from 400 μg/ml to 3 μg/ml (serial dilutions), derived from Phage Display were incubated with the monoclonal antibody that was used for the screening procedure. Peptides diminishing subsequent binding of the antibody to the original human alpha-synuclein epitope (p5436) and the human alpha-synuclein protein (p4446) coated on ELISA plates were considered as inhibiting in this assay.

Turning to MGKGEEGYPQC [p4454, reference compound], in test [1], the “Titer in animals OD halfmax injected pep.” value (from here on “Titer”) is given as 17000. In addition, in test [2], the “class of immunogenicity: a Syn” value is 1 (peptides inducing an immune response with OD halfmax between 1000 and 51.). This sequence registered a Binding in test [3] of 2.
As to KNDEGAPC [p5445, mimotope], the “Titer” value in test [1] came to 26000. Moreover, the Competition in test [4] was determined as 2. Further, the “class of immunogenicity: a Syn” value in test [2] is on record as 2 (peptides inducing an immune response with OD halfmax higher than 1000.). In addition, the Binding in test [3] is on record as 2.
Turning to KNAEGAPC [p5439, mimotope], the “Titer” value in test [1] was 8000. Further, the Competition in test [4] is given as 1. The “class of immunogenicity: a Syn” value in test [2] is 1 (peptides inducing an immune response with OD halfmax between 1000 and 51.). Also, in test [3], the Binding was 2 and the “detection/binding by monoclonal antibody 12-9-9 in ELISA” value (shortened to “detection/binding”) is “detected similarly”.
RNEEGAPC [p5443, mimotope]: the “Titer” value in test [1] worked out at 9000. In test [4], this sequence yielded a Competition of 2. Moreover, the “class of immunogenicity: a Syn” value in test [2] was 1 (peptides inducing an immune response with OD halfmax between 1000 and 51.). The Binding in test [3] is 2.
As for LGKNEEGAPC [p5402, reference compound], the “Titer” value in test [1] is given as 20000. This sequence also had a Competition in test [4] of 2. Moreover, the “class of immunogenicity: a Syn” value in test [2] is on record as 2 (peptides inducing an immune response with OD halfmax higher than 1000.). For the same sequence, in test [3], the Binding turned out to be 2 and the “detection/binding” value was “retained full binding capacities”.
Sequence TPSWKGEC [p5464, mimotope] showed a Competition in test [4] of 1. Also, the “class of immunogenicity: a Syn” value in test [2] is on record as 0 (peptides inducing no immune response or a very low immune response with OD halfmax around 50 or lower.). In test [3], this sequence displayed a Binding of 2.
For the sequence KNEEGAPC [p5436, reference compound], the “Titer” value in test [1] is listed as 10000. Also, the Competition in test [4] was 2. In addition, in test [2], the “class of immunogenicity: a Syn” value was 2 (peptides inducing an immune response with OD halfmax higher than 1000.). Moreover, in test [3], the Binding was determined as 2 and the “detection/binding” value is reported as “detected similarly; also recorded: retained full binding capacities”.
In test [4], RNAEGAPC [p5597, mimotope] had a Competition of 1. Moreover, in test [2], the “class of immunogenicity: a Syn” value is 1 (peptides inducing an immune response with OD halfmax between 1000 and 51.). The sequence further returned a Binding in test [3] of 2.
In the case of RSEEGAPC [p5590, mimotope], the Competition in test [4] is 1. The “class of immunogenicity: a Syn” value in test [2] is 1 (peptides inducing an immune response with OD halfmax between 1000 and 51.). The Binding in test [3] was 2.
